Test results from patent US7718641B2, “Pyrrolo [3,4-H] isoquinoline compounds and methods for modulating gated ion channels” (Aros Pharma ApS, priority 2005, dated 2010).

Target: T1, rat ASIC3 (Rattus norvegicus, UniProt O35240)
T1 construct: expressed in transfected cells; host or cells: HEK293
T1 sequence (O35240 1-533): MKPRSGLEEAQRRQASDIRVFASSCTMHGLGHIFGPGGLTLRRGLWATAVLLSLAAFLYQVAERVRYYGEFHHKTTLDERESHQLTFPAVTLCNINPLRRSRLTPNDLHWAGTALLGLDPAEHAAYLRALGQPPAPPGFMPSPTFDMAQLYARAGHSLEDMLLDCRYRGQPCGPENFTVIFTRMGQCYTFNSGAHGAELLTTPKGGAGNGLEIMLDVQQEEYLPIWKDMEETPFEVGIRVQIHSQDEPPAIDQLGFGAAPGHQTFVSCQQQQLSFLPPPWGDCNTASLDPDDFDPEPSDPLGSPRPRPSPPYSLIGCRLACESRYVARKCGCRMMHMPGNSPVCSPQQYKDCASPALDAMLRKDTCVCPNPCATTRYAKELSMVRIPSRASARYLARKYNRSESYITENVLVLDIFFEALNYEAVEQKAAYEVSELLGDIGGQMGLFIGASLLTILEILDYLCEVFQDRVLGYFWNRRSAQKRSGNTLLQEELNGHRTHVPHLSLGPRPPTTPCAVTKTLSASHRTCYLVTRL
Test: Whole-cell patch clamp of acid-induced peak inward currents in HEK293 transfected with rat ASIC3
Format: cell-based
Details: for inhibitory effect on acid-induced peak inward currents, rASIC3: HEK293, voltage clamp, increasing concentrations; for potency as antagonist compared to amiloride, rASIC3: full dose-inhibition curves, HEK293
Method: Another example of an in vitro assessment method consists of using mammalian heterologous expression systems, which are known to the skilled in the art, and include a variety of mammalian cell lines such as COS, HEK, e.g., HEK293 and/or CHO, cells. Cell lines are transfected with gated ion channel(s) and used to perform electrophysiology as follows:
All experiments are performed at room temperature (20-25° C.) in voltage clamp using conventional whole cell patch clamp methods (Neher, E., et al. (1978) Pfluegers Arch 375:219-228).
The amplifier used is the EPC-9 (HEKA-electronics, Lambrect, Germany) run by a Macintosh G3 computer via an ITC-16 interface. Experimental conditions are set with the Pulse-software accompanying the amplifier. Data is low pass filtered and sampled directly to hard-disk at a rate of 3 times the cut-off frequency.
Pipettes are pulled from borosilicate glass using a horizontal electrode puller (Zeitz-Instrumente, Augsburg, Germany). The pipette resistances are 2-3 MOhms in the salt solutions used in these experiments. The pipette electrode is a chloridized silver wire, and the reference is a silver chloride pellet electrode (In Vivo Metric, Healdsburg, USA) fixed to the experimental chamber. The electrodes are zeroed with the open pipette in the bath just prior to sealing.
Coverslips with the cells are transferred to a 15 μl experimental chamber mounted on the stage of an inverted microscope (IMT-2, Olympus) supplied with Nomarski optics. Cells are continuously superfused with extracellular saline at a rate of 2.5 ml/min. After giga-seal formation, the whole cell configuration is attained by suction. The cells are held at a holding voltage of −60 mV and at the start of each experiment the current is continuously measured for 45 s to ensure a stable baseline. Solutions of low pH (<7) are delivered to the chamber through a custom-made gravity-driven flowpipe, the tip of which is placed approximately 50 μm from the cell. Application is triggered when the tubing connected to the flowpipe is compressed by a valve controlled by the Pulse-software. Initially, low pH (in general, pH 6.5) is applied for 5 s every 60 s. The sample interval during application is 5501s. […] Current amplitudes are measured at the peak of the responses, and effect of the compounds is calculated as the amplitude at compound equilibrium divided by the amplitude of the current evoked by the pulse just before the compound was included. […]
HEK293 cells were transfected with rASIC1a or rASIC3 and were used to perform full dose-inhibition curves with Compound A, Compound H and amiloride. Results are expressed as a fraction of the control peak current obtained in the absence of the test substance.

inhibitory effect on acid-induced peak inward currents, rASIC3 | Compound | potency as antagonist compared to amiloride, rASIC3
dose-dependently inhibit | CCN1CCc2c(-c3ccccc3)cc3c(c2C1)NC(=O)/C3=N/O [Compound H, 5-phenyl-6,7,8,9-tetrahydro-3-(hydroxyimino)-8-ethyl-1H-pyrrolo[3,2-h]isoquinoline-2(3H)-one] | more potent antagonists as compared to amiloride
dose-dependently inhibit | COc1ccc(F)cc1-c1cc2c(c3c1CCN(C)C3)NC(=O)/C2=N/O [Compound A, 5-(5-fluoro-2-methoxyphenyl)-6,7,8,9-tetrahydro-3-(hydroxyimino)-8-methyl-1H-pyrrolo[3,2-h]isoquinoline-2(3H)-one] | more potent antagonists as compared to amiloride
